# From patent US20250296953A1, “3,4-THIAZOLO-STEROIDS AND METHODS OF MAKING AND USING THE SAME” (Arkansas State University - Jonesboro, priority 2018, published 2025)
# Where two headings read alike, the source gives them in different places.
# Tested on: 60 different human tumor cell lines
# Settings: for GI50 / TGI: five dose
# [1] = A549/ATCC (Non-small Cell Lung Cancer)
# [2] = EKVX (Non-small Cell Lung Cancer)
# [3] = HOP-62 (Non-small Cell Lung Cancer)
# [4] = HOP-92 (Non-small Cell Lung Cancer)
# [5] = MDA-MB-231/ATCC (Breast Cancer)
# [6] = NCI-H23 (Non-small Cell Lung Cancer)
# [7] = NCI-H226 (Non-small Cell Lung Cancer)
# [8] = NCI-H322M (Non-small Cell Lung Cancer)
# [9] = NCI-H460 (Non-small Cell Lung Cancer)
# [10] = NCI-H522 (Non-small Cell Lung Cancer)
substance,measurement,setting,value
"(1S,2R,13R,14S,18S)-7-(3-fluoroanilino)-2,18-dimethyl-6-thia-8-azapentacyclo[11.7.0.02,10.05,9.014,18]icosa-5(9),7,10-trien-17-one [IIa.8]",CC50,,> 100000 nM
same,GI50,786-0 (Renal Cancer),1430 nM
same,TGI,786-0 (Renal Cancer),2.83E−6
same,GI50,A498 (Renal Cancer),2160 nM
same,TGI,A498 (Renal Cancer),6.77E−6
same,GI50,[1],2580 nM
same,TGI,[1],7.50E−6
same,GI50,ACHN (Renal Cancer),1780 nM
same,TGI,ACHN (Renal Cancer),3.24E−6
same,GI50,BT-549 (Breast Cancer),1540 nM
same,TGI,BT-549 (Breast Cancer),3.62E−6
same,GI50,CAKI-1 (Renal Cancer),1990 nM
same,TGI,CAKI-1 (Renal Cancer),5.73E−6
same,GI50,CCRF-CEM (Leukemia),1900 nM
same,TGI,CCRF-CEM (Leukemia),>1.00E−4
same,GI50,COLO 205 (Colon Cancer),2160 nM
same,TGI,COLO 205 (Colon Cancer),4.81E−6
same,GI50,DU-145 (Prostate Cancer),1930 nM
same,TGI,DU-145 (Prostate Cancer),4.87E−6
same,GI50,[2],2500 nM
same,TGI,[2],1.85E−5
same,GI50,HCC-2998 (Colon Cancer),3550 nM
same,TGI,HCC-2998 (Colon Cancer),1.46E−5
same,GI50,HCT-15 (Colon Cancer),1580 nM
same,TGI,HCT-15 (Colon Cancer),4.08E−6
same,GI50,HCT-116 (Colon Cancer),1590 nM
same,TGI,HCT-116 (Colon Cancer),3.24E−6
same,GI50,HL-60(TB) (Leukemia),2730 nM
same,TGI,HL-60(TB) (Leukemia),8.00E−6
same,GI50,[3],2070 nM
same,TGI,[3],5.34E−6
same,GI50,[4],2250 nM
same,TGI,[4],4.17E−6
same,GI50,HS 578T (Breast Cancer),3140 nM
same,TGI,HS 578T (Breast Cancer),>1.00E−4
same,GI50,HT29 (Colon Cancer),1490 nM
same,TGI,HT29 (Colon Cancer),3.51E−6
same,GI50,IGROV1 (Ovarian Cancer),1890 nM
same,TGI,IGROV1 (Ovarian Cancer),3.83E−6
same,GI50,K-562 (Leukemia),1860 nM
same,GI50,KM12 (Colon Cancer),3000 nM
same,TGI,KM12 (Colon Cancer),1.24E−5
same,GI50,LOX IMVI (Melanoma),1670 nM
same,TGI,LOX IMVI (Melanoma),3.21E−6
same,GI50,M14 (Melanoma),2360 nM
same,TGI,M14 (Melanoma),7.23E−6
same,GI50,MALME-3M (Melanoma),1940 nM
same,TGI,MALME-3M (Melanoma),5.04E−6
same,GI50,MCF7 (Breast Cancer),1370 nM
same,TGI,MCF7 (Breast Cancer),3.28E−6
same,GI50,[5],2110 nM
same,TGI,[5],4.59E−6
same,GI50,MDA-MB-435 (Melanoma),2740 nM
same,TGI,MDA-MB-435 (Melanoma),1.31E−5
same,GI50,MDA-MB-468 (Breast Cancer),2010 nM
same,TGI,MDA-MB-468 (Breast Cancer),4.18E−6
same,GI50,MOLT-4 (Leukemia),1680 nM
same,TGI,MOLT-4 (Leukemia),2.83E−5
same,GI50,[6],2270 nM
same,TGI,[6],9.08E−6
same,GI50,[7],2350 nM
same,TGI,[7],5.70E−6
same,GI50,[8],3600 nM
same,TGI,[8],2.89E−6
same,GI50,[9],2520 nM
same,TGI,[9],5.58E−6
same,GI50,[10],1630 nM
same,TGI,[10],3.06E−6
same,GI50,NCI/ADR-RES (Ovarian Cancer),2810 nM
same,TGI,NCI/ADR-RES (Ovarian Cancer),1.72E−5
same,GI50,OVCAR-3 (Ovarian Cancer),1720 nM
same,TGI,OVCAR-3 (Ovarian Cancer),3.30E−6
same,GI50,OVCAR-4 (Ovarian Cancer),2710 nM
same,TGI,OVCAR-4 (Ovarian Cancer),>1.00E−4
same,GI50,OVCAR-5 (Ovarian Cancer),2730 nM
same,TGI,OVCAR-5 (Ovarian Cancer),1.80E−5
same,GI50,OVCAR-8 (Ovarian Cancer),2790 nM
same,TGI,OVCAR-8 (Ovarian Cancer),7.98E−6
same,GI50,PC-3 (Prostate Cancer),1880 nM
same,TGI,PC-3 (Prostate Cancer),3.87E−6
same,GI50,RXF 393 (Renal Cancer),1450 nM
same,TGI,RXF 393 (Renal Cancer),3.25E−6
same,GI50,SF-268 (CNS Cancer),3090 nM
same,TGI,SF-268 (CNS Cancer),1.11E−5
same,GI50,SK-MEL-2 (Melanoma),1860 nM
same,TGI,SK-MEL-2 (Melanoma),5.19E−5
same,GI50,SK-MEL-5 (Melanoma),2020 nM
same,TGI,SK-MEL-5 (Melanoma),4.32E−6
